Here are results for 1 compound from US10945980B2, “Treatment for myopia” (The University of Newcastle, priority 2016, dated 2021).

Holding throughout (assay type): in vivo, guinea pig (Cavia porcellus)
Experiment [1] deals with form deprivation myopia in guinea pigs. As to the kind of experiment: Intravitreal L-arginine in form deprivation (FD) myopia, 3 days diffuser wear. As for the experimental part: Fifty-seven pigmented guinea pigs (Cavia porcellus) were sourced from the University of Newcastle and housed as described in Example 1. Animals were provided with food and water ad libitum and the room temperature was maintained at 22° C. The University of Newcastle under Australian legislative requirements approved all procedures.
Animals wore classical form diffusers made of translucent moulded Perspex (0.8 mm thickness, 24% transmission) on their right eyes. Diffusers were mounted onto plastic washers backed with Velcro® and attached to mating Velcro® arcs which were affixed above and below the eye.
(§1) Animals were assigned to one of seven treatment groups (Table 1). From seven days of age, five of these groups were form deprived in the right eye for 3 days with a diffuser (two groups wore no diffusers and served as controls for form deprived animals). Six groups of animals were intravitreally injected with either L-arginine or physiological saline once per day, just before lights came on at 10 am. One group wore diffusers, but received no injection as a control. At ten days of age, cycloplegia was induced in all animals and refractive error and ocular components were measured. Two retinas, one a saline control and another that had been injected with the highest dose of L-arginine, were analysed by histochemistry for morphological markers of L-arginine induced toxicity.
To establish the size of the guinea pig vitreous, and thus the molarity of the substrate within the eye, ten vitreous chambers were extracted from ten eyes. The volume of the vitreous was 125 μl. Based on this, three drug doses of L-arginine were employed: low (0.4 mM), medium (2.2 mM) and high (non-toxic: 9.3 mM) (See Table 1). A 30 gauge Hamilton syringe was used to slowly inject into the vitreous through the temporal sclera of right eyes, approximately 2 mm posterior to the limbus. All injections were 10 μl of either physiological saline (0.9%) or L-arginine dissolved in saline (pH 7.4 for all injections).
(§2) Cycloplegia was induced as described in Example 1, and refractive error subsequently measured as described in Example 1.
Ocular length and axial components were also determined as described in Example 1.
The data presented are means±standard errors of the mean. All figures and statistics are based on the difference between the lens-wearing eye and the fellow non lens-wearing eye and are referred to as relative refractive error and relative ocular distances. Statistical comparisons between lens wearing groups were based on one way ANOVAs followed by Holm-Sidak post hoc tests to account for family-wise error. Correlations were based on Pearson's regression analysis. Statistical analysis used Prism®, Graph Pad Software, Inc. V 6.

The test system of experiment [2] is lens-induced myopia in guinea pigs. As to the kind of experiment: Intravitreal L-arginine in lens-induced (−6D) myopia, 3 days. The conditions noted are these: 0.2 mM L-arginine daily intravitreal at 7, 8, 9 days of age, −6D lens 3 days; not significant p=0.169.
For experiment [3], the system named is guinea pig eyes not form deprived. As to the kind of experiment: Intravitreal L-arginine in eyes not form deprived (control groups of Example 2). The conditions noted are these: 2.2 mM L-arginine vs vehicle, no FD.
Description: as §1
To establish the size of the guinea pig vitreous, and thus the molarity of the substrate within the eye, ten vitreous chambers were extracted from ten eyes. The volume of the vitreous was 125 μl. Based on this, three drug doses of L-arginine were employed: low (0.4 mM), medium (2.2 mM) and high (non-toxic: 9.3 mM) (See Table 1). […]
as §2
Ocular length and axial components were also determined as described in Example 1. […]

For experiment [4], the system named is normal eye growth in guinea pigs. As to the kind of experiment: Eye drops on normal growth and emmetropization (no lens wear). The conditions noted are these: eye drops twice daily 9-16 days of age. As for the experimental part:
(§3) Two experimental protocols were employed (see Table 4). In Experiment 1, young guinea pigs wore a −6D lens on one eye from 5-12 days of age. They were randomly divided within each litter into two groups of 10 animals each, and received either a drop of L-Arginine (100 mM, 1.7%) in Saline (pH 7.4) or Saline alone (0.9%, pH 7.4) twice per day in the eye wearing the lens (Table 4). Drops were administered at the beginning of their light cycle and again approximately 6 hrs later in the middle of their day cycle. Lenses were removed during the drop administration which occurred under dim red light or in darkness. A single large drop was bathed on the cornea for 3 min in the lens-wearing eye in hand held animals. A clean lens was then reintroduced onto the eye. In Experiment 2, 14 guinea pigs were given eye drops in the same manner as in Experiment 1, but in both eyes and without any lens-wear, to determine the effect of the eye drops on normal eye growth. Animals received one drop of either 1.7% L-arginine (n=7) or atropine (Minims Atropine Sulphate 1%, Bausch & Lomb, preservative free, n=7) in one eye and saline (0.9%) in the other eye twice per day from 9-16 days of age.
(§4) In Experiment 1, at the end of the lens-wearing period, at 12 days of age just before the morning lights came on, both eyes were cyclopleged (1% Cyclopentolate—to paralyse the focussing muscles of the eye to a resting state) and 1.25 hours later, refractive error (RE) was measured. Animals were then anaesthetised with gaseous anaesthetic (1.5% isoflurane in oxygen) and eye length measures were taken in both eyes with high frequency ultrasound as described in Example 1. Biometry measures were also taken in the same manner before the lens wear period at 5 days of age. [No refractive measures were done at 5 days of age as cycloplegia could have interfered with the drug or lens response]. In Experiment 2, refractive error and eye length using ultrasound were measured in the same manner at 17 days of age, 24 hours after the previous drop was administered.
(§5) After cycloplegia was induced, refractive error was measured in each eye using an Autorefractor (Nidek AR-20, Japan). The spherical equivalent was calculated as the average of the sphere plus half the cylinder as is normal in clinical practice. All reported refractive errors are the spherical equivalent. Next, ocular length was measured using high frequency ultrasound (20 MHz) as previously described (McFadden et al, 2004). At least 20 traces were recorded for each eye and distances were averaged for at least 10 of these recordings. Peaks from the recordings were selected for the back of the cornea, the crystalline lens, and the vitreous chamber, and the layers at the back of the eye: the retina, choroid, and sclera. Ocular length was defined as the summed measurement from the front of the cornea to the back of the sclera.
(§6) Differences between the two eyes were analysed by a 2-tailed T-tests. The mean of calculated differences between the two eyes is referred to as relative myopia or relative ocular length and the difference in the change in ocular length in the treated compared to the untreated eye as relative growth.

The test system of experiment [5] is lens-induced myopia in guinea pigs. Briefly: L-arginine eye drops in −6D lens-induced myopia.
Description: Guinea pigs (pigmented variety, Cavia porcellus) were bred, housed, and raised as described in Example 1. Lights were on a 12 hr light 12 hr dark cycle. The University of Newcastle Animal Care and ethics Committee approved all procedures.
as §3, §4
In Experiment 1, lens-induced myopia was achieved by attaching −6D concave lenses to matching Velcro arcs glued above and below the experimental eye as previously described (Howlett & McFadden, 2009). Lenses were exchanged with a clean lens after drop administration.
as §5, §6

In the case of `N=C(N)NCCC[C@H](N)C(=O)O` [L-arginine], the “relative refractive error compared with animals that had no form deprivation” value in experiment [1] (FD 2.2 mM and FD 9.3 mM groups, daily intravitreal injection, 3 days FD) is “not significantly different from animals that had no form deprivation”. Moreover, the “ocular length, shortening relative to FD NIL” value in experiment [1] (FD 9.3 mM (high dose, intravitreal) vs form deprivation only, p<0.001) is −484 μm. Further, the “vitreous chamber depth, difference FD 0 mM vs FD 9.3 mM” value in experiment [1] (FD + vehicle vs FD + 9.3 mM L-arginine, did not reach significance, p=0.12) stood at 215 μm. Besides, in experiment [1] (FD + vehicle vs FD + 9.3 mM L-arginine, not significant, p=0.14), the “choroid thickness, FD 0 mM thinner than FD 9.3 mM” value came out at 31 μm. Moreover, in experiment [1] (FD + vehicle vs FD + high dose L-arginine 9.3 mM intravitreal, p<0.001), the “ocular length, FD 0 mM greater than FD 9.3 mM” value came out at 403 μm. Besides, in experiment [1] (form deprivation only vs FD + 9.3 mM L-arginine intravitreal, p<0.001), the “vitreous chamber depth, FD NIL longer than FD 9.3 mM” value came out at 484 μm. In experiment [1] (form deprivation only vs FD + 9.3 mM L-arginine intravitreal, p=0.03), the “choroid thickness, difference FD NIL vs FD 9.3 mM” value is −39 μm. Further, the “interocular difference in refractive error (lens-wearing eye more hyperopic than fellow eye)” value in experiment [2] came out at 2.00 D. For the same compound, the “difference in relative refractive error between the two groups that were not form deprived” value in experiment [3] (daily 10 μl intravitreal injection for 3 days, p=0.46) is −0.2 D. The “difference in ocular length between groups not form deprived” value in experiment [3] (intravitreal, p=0.44) is listed as 83 μm. For the same compound, the “ocular length on average” value in experiment [4] (measured at 17 days, p=0.22 between groups) was 8.124 mm. The “mean refractive error, both eyes averaged” value in experiment [4] (measured at 17 days, p=0.32 between groups) is given as “+4.43”. Also, the “effect on refractive error (drug eye vs saline eye)” value in experiment [4] (no lens, 1.7% LA (p=0.69) or 1% Atropine (p=0.40)) is given as “did not affect the refractive error of the eye”. The “difference between the two eyes in ocular length (drug eye vs saline control eye)” value in experiment [4] (LA p=0.39, ATR p=0.42) is given as −33 μm. In experiment [5] (1.7% (100 mM) LA eye drops twice daily, −6D lens), the “animals that did not develop myopia in the lens-wearing eye” value was 7/10. Besides, in experiment [5] (1.7% LA eye drops twice daily, between 5 and 12 days of age, −6D lens, p=0.01 vs saline), the “relative eye growth (mean growth in ocular length) across all animals” value was 42±17 μm. In experiment [5] (1.7% LA eye drops twice daily, between 5 and 12 days of age, p=0.44), the “relative growth in the 70% of animals which failed to develop myopia” value worked out at 10±12 μm. Further, in experiment [5] (1.7% LA eye drops twice daily, −6D lens), the “animals protected from developing myopia” value is recorded as 70%. In experiment [5] (1.7% LA eye drops twice daily, −6D lens, p=0.000 vs saline), the “relative myopia in the 7 animals that did not develop myopia” value is on record as −2.5±0.7 D. Further, the “relative myopia, mean across all 10 animals” value in experiment [5] (1.7% LA eye drops twice daily, −6D lens, p=0.007 vs saline) is −3.6±0.8 D. In experiment [5] (1.7% LA eye drops, the 70% of animals protected), the “mean myopia as percent of that in control animals” value is given as 37%. In addition, the “mean refractive error in untreated eyes” value in experiment [5] (untreated fellow eyes of LA group at 12 days of age, 1.7% LA eye drops twice daily in the other eye) is reported as “+5.2±0.5 D”.
